This passage reports EC50 and Emax results from patent publication US20190367516A1 (Bayer Pharma Aktiengesellschaft, priority 2015, published 2019).

In the first experiment the target is T1, human M2 receptor (Homo sapiens, UniProt P08172).
T1 sequence (P08172 1-466): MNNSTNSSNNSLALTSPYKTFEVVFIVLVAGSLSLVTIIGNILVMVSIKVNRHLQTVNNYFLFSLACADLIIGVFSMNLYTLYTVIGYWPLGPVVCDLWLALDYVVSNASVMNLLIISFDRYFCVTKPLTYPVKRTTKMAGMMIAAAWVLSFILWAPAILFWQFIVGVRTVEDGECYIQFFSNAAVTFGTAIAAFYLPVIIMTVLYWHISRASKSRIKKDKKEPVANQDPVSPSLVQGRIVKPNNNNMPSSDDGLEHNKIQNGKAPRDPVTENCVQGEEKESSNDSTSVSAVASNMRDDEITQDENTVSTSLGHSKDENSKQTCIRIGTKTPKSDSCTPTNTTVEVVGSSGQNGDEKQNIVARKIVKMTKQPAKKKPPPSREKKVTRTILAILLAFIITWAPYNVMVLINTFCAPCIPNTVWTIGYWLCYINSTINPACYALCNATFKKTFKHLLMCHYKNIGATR
Conditions: Receptor activity EC50, M2-GIRK1/4 activation test, acetylcholine at EC20; allosteric potency; in some cases mean values from two or more determinations.
The term EC50 denotes the concentration that produces a half-maximal response. For `CC(C)(C)[C@H](NC(=O)c1cn(-c2c(F)cc(F)cc2F)c2nc(N3CCNC3=O)ccc2c1=O)C(F)(F)F` [Example 359, 4-Oxo-7-(2-oxoimidazolidin-1-yl)-N-[(2S)-1,1,1-trifluoro-3,3-dimethylbutan-2-yl]-1-(2,4,6-trifluorophenyl)-1,4-dihydro-1,8-naphthyridine-3-carboxamide], the EC50 is 13 nM.
The same measure, in the same setting: for `CC(C)(C)[C@@H](NC(=O)c1cn(-c2c(F)cc(F)cc2F)c2nc(N3CCN(CCO)C3=O)ccc2c1=O)C(F)(F)F` [Example 361, 7-[3-(2-Hydroxyethyl)-2-oxoimidazolidin-1-yl]-4-oxo-N-[(2R)-1,1,1-trifluoro-3,3-dimethylbutan-2-yl]-1-(2,4,6-trifluorophenyl)-1,4-dihydro-1,8-naphthyridine-3-carboxamide] the value was 17 nM; for `O=C(NC12CC(F)(C1)C2)c1cn(-c2c(F)cc(F)cc2F)c2nc(N3C[C@@H](O)CC3=O)ccc2c1=O` [Example 367, N-(3-Fluorobicyclo[1.1.1]pent-1-yl)-7-[(4S)-4-hydroxy-2-oxopyrrolidin-1-yl]-4-oxo-1-(2,4,6-trifluorophenyl)-1,4-dihydro-1,8-naphthyridine-3-carboxamide], 100 nM.
On the same count and under the same terms, with `O=C(NC12CC(F)(C1)C2)c1cn(-c2c(F)cc(F)cc2F)c2nc(N3C[C@@H](O)[C@H](O)C3)ccc2c1=O` [Example 368, 7-[(3R,4R)-3,4-Dihydroxypyrrolidin-1-yl]-N-(3-fluorobicyclo[1.1.1]pent-1-yl)-4-oxo-1-(2,4,6-trifluorophenyl)-1,4-dihydro-1,8-naphthyridine-3-carboxamide] the figure was 91 nM.
The same measure, in the same setting: for `O=C(N[C@@H](C1CC1)C(F)(F)F)c1cn(-c2c(F)cc(F)cc2F)c2nc(N3CCNS3(=O)=O)ccc2c1=O` [Example 373, N-[(1 S)-1-Cyclopropyl-2,2,2-trifluoroethyl]-7-(d1,1-dioxido-1,2,5-thiadiazolidin-2-yl)-4-oxo-1-(2,4,6-trifluorophenyl)-1,4-dihydro-1,8-naphthyridine-3-carboxamide] the value was 89 nM; for `O=C(N[C@@H](C1CC1)C(F)(F)F)c1cn(-c2c(F)cc(F)cc2F)c2nc(N3CCOC3=O)ccc2c1=O` [Example 374, N-[(1S)-1-Cyclopropyl-2,2,2-trifluoroethyl]-4-oxo-7-(2-oxo-1,3-oxazolidin-1.3-yl)-1-(2,4,6-trifluorophenyl)-1,4-dihydro-1,8-naphthyridine-3-carboxamide], 49 nM.
Regarding `CC(C)(CC(F)(F)F)NC(=O)c1cn(-c2c(F)cc(F)cc2F)c2nc(N3CCN(CCO)C3=O)ccc2c1=O` [Example 375, 7-[3-(2-Hydroxyethyl)-2-oxoimidazolidin-1-yl]-4-oxo-N-(4,4,4-trifluoro-2-methylbutan-2-yl)-1-(2,4,6-trifluorophenyl)-1,4-dihydro-1,8-naphthyridine-3-carboxamide], the EC50 turned out to be 40 nM.
`CC(C)(CC(F)(F)F)NC(=O)c1cn(-c2c(F)cc(F)cc2F)c2nc(N3CCNC3=O)ccc2c1=O` [Example 376, 4-Oxo-7-(2-oxoimidazolidin-11-yl)-N-(4,4,4-trifluoro-2-methylbutan-2-yl)-1-(2,4,6-trifluorophenyl)-1,4-dihydro-1,8-naphthyridine-3-carboxamide] returned an EC50 of 16 nM.
The same measure, in the same setting: for `C[C@@H](O)CNc1ccc2c(=O)c(C(=O)N[C@@H](C3CC3)C(F)(F)F)cn(-c3c(F)cc(F)cc3F)c2n1` [Example 378, N-[(1S)-1-Cyclopropyl-2,2,2-trifluoroethyl]-7-{[(2R)-2-hydroxypropyl]amino}-4-oxo-1-(2,4,6-trifluorophenyl)-1,4-dihydro-1,8-naphthyridine-3-carboxamide] the value was 81 nM; for `CC(C)(NC(=O)c1cn(-c2c(F)cc(F)cc2F)c2nc(N3C[C@@H](O)[C@H](O)C3)ccc2c1=O)C1CC1` [Example 379, N-(2-Cyclopropylpropan-2-yl)-7-[(3R,4R)-3,4-dihydroxypyrrolidin-1-yl]-4-oxo-1-(2,4,6-trifluorophenyl)-1,4-dihydro-1,8-naphthyridine-3-carboxamide], 35 nM.
On the same count and under the same terms, with `N#CN1CCCN(c2ccc3c(=O)c(C(=O)N[C@@H](C4CC4)C(F)(F)F)cn(-c4c(F)cc(F)cc4F)c3n2)C1=O` [Example 380, 7-(3-Cyano-2-oxotetrahydropyrimidin-1(2H)-yl)-N-[(1S)-1-cyclopropyl-2,2,2-trifluoroethyl]-4-oxo-1-(2,4,6-trifluorophenyl)-1,4-dihydro-1,8-naphthyridine-3-carboxamide] the figure was 46 nM; with `C[C@@H]1CN(c2ccc3c(=O)c(C(=O)N[C@@H](C)COC(F)(F)F)cn(-c4c(F)cc(F)cc4F)c3n2)C(=O)N1` [Example 381, 7-[(4R)-4-Methyl-2-oxoimidazolidin-1-yl]-4-oxo-N-[(2S)-1-(trifluoromethoxy)propan-2-yl]-1-(2,4,6-trifluorophenyl)-1,4-dihydro-1,8-naphthyridine-3-carboxamide], 23 nM; with `CC(C)(NC(=O)c1cn(-c2c(F)cc(F)cc2F)c2nc(N3CCCN(CCO)C3=O)ccc2c1=O)C(F)F` [Example 382, N-(1,1-Difluoro-2-methylpropan-2-yl)-7-[3-(2-hydroxyethyl)-2-oxotetrahydropyrimidin-1(2H)-yl]-4-oxo-1-(2,4,6-trifluorophenyl)-1,4-dihydro-1,8-naphthyridine-3-carboxamide], 72 nM.
`CC(C)(CC(F)(F)F)NC(=O)c1cn(-c2c(F)cc(F)cc2F)c2nc(N3CCCN(CCO)C3=O)ccc2c1=O` [Example 383, 7-[3-(2-Hydroxyethyl)-2-oxotetrahydropyrimidin-1(2H)-yl]-4-oxo-N-(4,4,4-trifluoro-2-methylbutan-2-yl)-1-(2,4,6-trifluorophenyl)-1,4-dihydro-1,8-naphthyridine-3-carboxamide] had an EC50 of 18 nM.
On the same count and under the same terms, for `O=C(N[C@H](C1CC1)C(F)(F)F)c1cn(-c2c(Cl)cc(F)cc2Cl)c2nc(N3C[C@@H](O)CC3=O)ccc2c1=O` [Example 387, N-[(1R)-1-Cyclopropyl-2,2,2-trifluoroethyl]-1-(2,6-dichloro-4-fluorophenyl)-7-[(4S)-4-hydroxy-2-oxopyrrolidin-1-yl]-4-oxo-1,4-dihydro-1,8-naphthyridine-3-carboxamide] the value was 42 nM; for `CC[C@@H](NC(=O)c1cn(-c2c(Cl)cc(F)cc2Cl)c2nc(N3C[C@@H](O)CC3=O)ccc2c1=O)C(F)(F)F` [Example 388, 1-(2,6-Dichloro-4-fluorophenyl)-7-[(4S)-4-hydroxy-2-oxopyrrolidin-1-yl]-4-oxo-N-[(2R)-1,1,1-trifluorobutan-2-yl]-1,4-dihydro-1,8-naphthyridine-3-carboxamide], 52 nM.
Still for that read-out and setting: for `CC[C@H](NC(=O)c1cn(-c2c(Cl)cc(F)cc2Cl)c2nc(N3C[C@@H](O)CC3=O)ccc2c1=O)C(F)(F)F` [Example 389, 1-(2,6-Dichloro-4-fluorophenyl)-7-[(4S)-4-hydroxy-2-oxopyrrolidin-1-yl]-4-oxo-N-[(2S)-1,1,1-trifluorobutan-2-yl]-1,4-dihydro-1,8-naphthyridine-3-carboxamide] the value was 38 nM.
`C[C@@H]1C[C@](C)(O)CN1c1ccc2c(=O)c(C(=O)N[C@@H](C)C(F)(F)F)cn(-c3c(F)cc(F)cc3Cl)c2n1` [Example 390, 1-(2-Chloro-4,6-difluorophenyl)-7-[(2R,4S)-4-hydroxy-2,4-dimethylpyrrolidin-1-yl]-4-oxo-N-[(2S)-1,1,1-trifluoropropan-2-yl]-1,4-dihydro-1,8-naphthyridine-3-carboxamide]: the EC50 is 14 nM.
Same read-out and setting: with `CC(C)(CC(F)(F)F)NC(=O)c1cn(-c2c(F)cc(F)cc2Cl)c2nc(N3C[C@@H](O)[C@H](O)C3)ccc2c1=O` [Example 391, 1-(2-Chloro-4,6-difluorophenyl)-7-[(3R,4R)-3,4-dihydroxypyrrolidin-1-yl]-4-oxo-N-(4,4,4-trifluoro-2-methylbutan-2-yl)-1,4-dihydro-1,8-naphthyridine-3-carboxamide] the figure was 8 nM; with `CC(C)(CC(F)(F)F)NC(=O)c1cn(-c2c(F)cc(F)cc2Cl)c2nc(N3CCNC3=O)ccc2c1=O` [Example 394, 1-(2-Chloro-4,6-difluorophenyl)-4-oxo-7-(2-oxoimidazolidin-1-yl)-N-(4,4,4-trifluoro-2-methylbutan-2-yl)-1,4-dihydro-1,8-naphthyridine-3-carboxamide], 7 nM.

Still in this experiment, the particulars now being: Receptor activity EC50, allosteric potency at EC20 acetylcholine; M2-GIRK1/4 reporter cells; in some cases mean of two or more determinations.
`CC(C)(CC(F)(F)F)NC(=O)c1cn(-c2c(F)cc(F)cc2Cl)c2nc(N3C[C@@H](O)CC3=O)ccc2c1=O` [Example 395, 1-(2-Chloro-4,6-difluorophenyl)-7-[(4S)-4-hydroxy-2-oxopyrrolidin-1-yl]-4-oxo-N-(4,4,4-trifluoro-2-methylbutan-2-yl)-1,4-dihydro-1,8-naphthyridine-3-carboxamide] showed an EC50 of 7 nM.
The same measure, in the same setting: for `O=C(NC12CC(F)(C1)C2)c1cn(-c2c(F)cc(F)cc2Cl)c2nc(N3C[C@@H](O)CC3=O)ccc2c1=O` [Example 397, 1-(2-Chloro-4,6-difluorophenyl)-N-(3-fluorobicyclo[1.1.1]pent-1-yl)-7-[(4S)-4-hydroxy-2-oxopyrrolidin-1-yl]-4-oxo-1,4-dihydro-1,8-naphthyridine-3-carboxamide] the value was 32 nM.

Still in this experiment, the particulars now being: read-out: Efficiency.
As for `CC[C@@H](NC(=O)c1cn(-c2c(Cl)cc(F)cc2Cl)c2nc(N3C[C@@H](O)CC3=O)ccc2c1=O)C(F)(F)F` [Example 388, 1-(2,6-Dichloro-4-fluorophenyl)-7-[(4S)-4-hydroxy-2-oxopyrrolidin-1-yl]-4-oxo-N-[(2R)-1,1,1-trifluorobutan-2-yl]-1,4-dihydro-1,8-naphthyridine-3-carboxamide], the Emax stood at 89%.
The same measure, in the same setting: for `CC[C@H](NC(=O)c1cn(-c2c(Cl)cc(F)cc2Cl)c2nc(N3C[C@@H](O)CC3=O)ccc2c1=O)C(F)(F)F` [Example 389, 1-(2,6-Dichloro-4-fluorophenyl)-7-[(4S)-4-hydroxy-2-oxopyrrolidin-1-yl]-4-oxo-N-[(2S)-1,1,1-trifluorobutan-2-yl]-1,4-dihydro-1,8-naphthyridine-3-carboxamide] the value was 85.5%.

Staying with this experiment, now noted: read-out: Efficiency, boosting of the acetylcholine effect at EC20 acetylcholine concentration; M2-GIRK1/4 reporter cells.
On to `CC(C)(CC(F)(F)F)NC(=O)c1cn(-c2c(F)cc(F)cc2Cl)c2nc(N3C[C@@H](O)CC3=O)ccc2c1=O` [Example 395, 1-(2-Chloro-4,6-difluorophenyl)-7-[(4S)-4-hydroxy-2-oxopyrrolidin-1-yl]-4-oxo-N-(4,4,4-trifluoro-2-methylbutan-2-yl)-1,4-dihydro-1,8-naphthyridine-3-carboxamide], for which the Emax turned out to be 100%.
Still for that read-out and setting: for `O=C(NC12CC(F)(C1)C2)c1cn(-c2c(F)cc(F)cc2Cl)c2nc(N3C[C@@H](O)CC3=O)ccc2c1=O` [Example 397, 1-(2-Chloro-4,6-difluorophenyl)-N-(3-fluorobicyclo[1.1.1]pent-1-yl)-7-[(4S)-4-hydroxy-2-oxopyrrolidin-1-yl]-4-oxo-1,4-dihydro-1,8-naphthyridine-3-carboxamide] the value was 90%.
